Laboratory results taken from US20240217968A1, “PHARMACEUTICAL COMPOUND” (DUKE STREET BIO LIMITED, priority 2021, published 2024).

Biological target: T1, recombinant human Flag-tagged PARP7 (amino acids 456-657) (Homo sapiens, UniProt Q7Z3E1)
T1 construct: recombinant human Flag-tagged PARP7 (amino acids 456-657)
T1 sequence (Q7Z3E1 456-657): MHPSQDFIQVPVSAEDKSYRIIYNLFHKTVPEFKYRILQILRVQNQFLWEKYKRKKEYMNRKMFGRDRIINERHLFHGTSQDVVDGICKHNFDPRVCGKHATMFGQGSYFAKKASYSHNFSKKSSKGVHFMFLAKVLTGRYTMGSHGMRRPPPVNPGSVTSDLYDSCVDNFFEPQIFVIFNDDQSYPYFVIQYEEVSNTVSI
Test: PARP7 biochemical DELFIA assay (auto-MARylation)
Settings: DELFIA readout, IC50 class
Procedure, shortened: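 Readout is DELFIA time-resolved Eu fluorescence (Ex337 nm, Em620 nm) of biotin-ADP-ribose on immobilised Flag-tagged PARP7 456-657. Enzyme (12.5-37.5 nM as added) sat 30 min with compound before biotin-NAD+ (15 μM solution, pH 7.5 HEPES buffer) started 2-3 h room-temperature self-modification, stopped with excess NAD+.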

IC50 [nM] | SMILES
≤ 100 | CC(COCCC(=O)N1CCN(c2ccc(OC(F)F)cn2)CC1)n1nc(C(F)(F)F)c2c(=O)[nH]ncc21 (single isomer, unassigned) [Compound 274]
1000 to 10000 | CN(C(=O)COCCc1cccc2c(=O)[nH]ncc12)C1CN(c2ncc(C(F)(F)F)cn2)C1 [Compound 109]
≤ 100 | CC(COCCC(=O)N1CCN(c2ncc(C3CC3)cn2)CC1)n1nc(C(F)(F)F)c2c(=O)[nH]ncc21 (single isomer, unassigned) [Compound 281]
≤ 100 | CC(COCCC(=O)N1CCN(c2ncc(C(F)(F)F)cn2)CC1)n1ccc2c(=O)[nH]ncc21 (centres unmarked) [Compound 75]
≤ 100 | CC(COCCC(=O)N1CCN(c2ccc(C(F)F)cn2)CC1)n1nc(C(F)(F)F)c2c(=O)[nH]ncc21 (centres unmarked) [Compound 343]
≤ 100 | CC(COCCC(=O)N1CCN(c2ncc(C#N)cn2)CC1)n1nc(C(F)(F)F)c2c(=O)[nH]ncc21 (single isomer, unassigned) [Compound 322, 2-(4-(3-(2-(4-oxo-3-(trifluoromethyl)-4,5-dihydro-1H-pyrazolo[3,4-d]pyridazin-1-yl)propoxy)propanoyl)piperazin-1-yl) pyrimidine-5-carbonitrile]
≤ 100 | CC(COCCC(=O)N1CCN(c2ncc(F)cc2F)CC1)n1nc(C(F)(F)F)c2c(=O)[nH]ncc21 (single isomer, unassigned) [Compound 350]
≤ 100 | Cc1cn(CCOCCC(=O)N2CCN(c3ncc(C(F)(F)F)cn3)CC2)c2cn[nH]c(=O)c12 [Compound 74, 3-methyl-1-(2-(3-oxo-3-(4-(5-(trifluoromethyl)pyrimidin-2-yl)piperazin-1-yl)propoxy)ethyl)-1,5-dihydro-4H-pyrrolo[2,3-d]pyridazin-4-one]
≤ 100 | O=C(CCOCCn1cc(C(F)(F)F)c2c(=O)[nH]ncc21)N1CCN(c2nc3ccccc3[nH]2)CC1 [Compound 380]
≤ 100 | Cc1nn(C(C)COCCC(=O)N2CCN(c3ncc(C#N)cn3)CC2)c2cn[nH]c(=O)c12 (single isomer, unassigned) [Compound 263]
100 to 1000 | CC(COCCC(=O)N1CCN(c2nnc(C(F)(F)F)[nH]2)CC1)n1nc(C(F)(F)F)c2c(=O)[nH]ncc21 (centres unmarked) [Compound 392]
100 to 1000 | CC(COCCC(=O)N1CCN(c2ncccc2Cl)CC1)n1nc(C(F)(F)F)c2c(=O)[nH]ncc21 (single isomer, unassigned) [Compound 356]
1000 to 10000 | CC(COCCC(=O)N1CCN(c2ncc(C(F)(F)F)cn2)CC1)c1cc(F)cc2c(=O)[nH]ncc12 (centres unmarked) [Compound 119]
≤ 100 | CC(COCCC(=O)N1CCN(c2ncc(OC(F)(F)F)cn2)CC1)n1nc(C(F)(F)F)c2c(=O)[nH]ncc21 (single isomer, unassigned) [Compound 387]
1000 to 10000 | O=C(c1cccc(Cc2cccc3c(=O)[nH]ncc23)c1)N1CCN(C(=O)C2CC2)CC1 [Compound 2]
1000 to 10000 | N#Cc1ccc(N2CCN(C(=O)c3cccc(CN4CCOc5c4cn[nH]c5=O)c3)CC2)nc1 [Compound 11]
≤ 100 | CC(COCCC(=O)N1CCN(c2ccc(C#N)cn2)CC1)n1nc(C(F)F)c2c(=O)[nH]ncc21 (single isomer, unassigned) [Compound 437]
≤ 100 | CC(COCCC(=O)N1CCN(c2ccc(C3CC3)cn2)CC1)n1nc(C(F)(F)F)c2c(=O)[nH]ncc21 (single isomer, unassigned) [Compound 279]
100 to 1000 | O=C(CCOCCc1cccc2c(=O)[nH]ncc12)N1CCN(c2ccc(F)cn2)CC1 [Compound 95]
≤ 100 | O=C(CCOCCn1cc(C(F)(F)F)c2c(=O)[nH]ncc21)N1CCN(c2ncc(Cl)cn2)CC1 [Compound 232]
≤ 100 | N#Cc1ccc(N2CCN(C(=O)c3cccc(OCCc4cccc5c(=O)[nH]ncc45)c3)CC2)nc1 [Compound 42]
≤ 100 | O=C(CCOCC(F)(F)c1cccc2c(=O)[nH]ncc12)N1CCN(c2ncc(C(F)(F)F)cn2)CC1 [Compound 424]
≤ 100 | O=C(c1cccc(Cn2cc(C(F)(F)F)c3c(=O)[nH]ncc32)c1)N1CCN(c2ncc(C(F)(F)F)cn2)CC1 [Compound 478]
1000 to 10000 | O=C1NCCCc2c(CCOCCC(=O)N3CCN(c4ncc(C(F)(F)F)cn4)CC3)cccc21 [Compound 145]
≤ 100 | CC(COCCC(=O)N1CCN(c2ncc(C#N)cn2)CC1)n1nc(C(F)F)c2c(=O)[nH]ncc21 (single isomer, unassigned) [Compound 490]

IC50 [nM] | SMILES
≤ 100 | O=C(CCOCCc1csc2c(=O)[nH]c(=O)[nH]c12)N1CCN(c2ncc(C(F)(F)F)cn2)CC1 [Compound 144]
≤ 100 | CCn1cc(CCOCCC(=O)N2CCN(c3ncc(C(F)(F)F)cn3)CC2)c2cn[nH]c(=O)c21 [Compound 203, 1-ethyl-3-(2-(3-oxo-3-(4-(5-(trifluoromethyl)pyrimidin-2-yl)piperazin-1-yl)propoxy)ethyl)-1,6-dihydro-7H-pyrrolo[2,3-d]pyridazin-7-one]
≤ 100 | O=C1NCCn2c(CCOCCC(=O)N3CCN(c4ncc(C(F)(F)F)cn4)CC3)cc(C(F)(F)F)c21 [Compound 316, 6-(2-(3-oxo-3-(4-(5-(trifluoromethyl)pyrimidin-2-yl)piperazin-1-yl)propoxy)ethyl)-8-(trifluoromethyl)-3,4-dihydropyrrolo[1,2-a]pyrazin-1(2H)-one]
≤ 100 | O=C(CCOCCc1cccc2c(=O)[nH]ncc12)N1CCN(c2nc3cc(F)ccc3o2)CC1 [Compound 199]
≤ 100 | CC(COCCC(=O)N1CCN(c2cnc(C(F)F)cn2)CC1)n1nc(C(F)(F)F)c2c(=O)[nH]ncc21 (single isomer, unassigned) [Compound 324]
≤ 100 | CC(COCC(=O)NC1CCN(c2ncc(C(F)(F)F)cn2)CC1)n1cc(C(F)(F)F)c2c(=O)[nH]ncc21 (single isomer, unassigned) [Compound 459]
≤ 100 | CC(COCCC(=O)N1CCN(c2ccc(C(F)(F)F)cn2)CC1)n1cc(C(F)(F)F)c2c(=O)[nH]ncc21 (centres unmarked) [Compound 376]
100 to 1000 | CC(CCOCC(=O)N1CCN(c2ccc(C#N)cn2)CC1)n1cc(C(F)(F)F)c2c(=O)[nH]ncc21 (single isomer, unassigned) [Compound 495]
≤ 100 | CC(COCCC(=O)N1CCN(c2ncc(C#N)s2)CC1)n1nc(C(F)(F)F)c2c(=O)[nH]ncc21 (centres unmarked) [Compound 283]
≤ 100 | CC(COCCC(=O)N1CCN(c2ccc(C#N)cn2)CC1)n1nc(C(F)(F)F)c2c(=O)[nH]ncc21 (single isomer, unassigned) [Compound 270]
100 to 1000 | O=C(CCOCCc1cccc2c(=O)[nH]ncc12)N1CCN(c2ncccn2)CC1 [Compound 104]
≤ 100 | [2H]C([2H])(OCCC(=O)N1CCN(c2ncc(C#N)cn2)CC1)C(C)n1nc(C(F)(F)F)c2c(=O)[nH]ncc21 (single isomer, unassigned) [Compound 421, 2-(4-(3-(2-(4-oxo-3-(trifluoromethyl)-4,5-dihydro-1H-pyrazolo[3,4-d]pyridazin-1-yl)propoxy-1,1-d2)propanoyl)piperazin-1-yl)pyrimidine-5-carbonitrile]
≤ 100 | CC1(C)CN(c2ncc(C(F)(F)F)cn2)CCN1C(=O)CCOCCn1cc(C(F)(F)F)c2c(=O)[nH]ncc21 [Compound 378]
≤ 100 | CC(COCCC(=O)N1CCN(c2ncc(C(C)(F)F)cn2)CC1)n1cc(C(F)(F)F)c2c(=O)[nH]ncc21 (centres unmarked) [Compound 481]
≤ 100 | [2H]C([2H])(OCCC(=O)N1CCN(c2ncc(C#N)cn2)CC1)C(C)n1nc(C(F)(F)F)c2c(=O)[nH]ncc21 (single isomer, unassigned) [Compound 420, 2-(4-(3-(2-(4-oxo-3-(trifluoromethyl)-4,5-dihydro-1H-pyrazolo[3,4-d]pyridazin-1-yl)propoxy-1,1-d2)propanoyl)piperazin-1-yl)pyrimidine-5-carbonitrile]
≤ 100 | CCc1cn(CCOCCC(=O)N2CCN(c3ncc(C(F)(F)F)cn3)CC2)c2cn[nH]c(=O)c12 [Compound 164]
100 to 1000 | CC(COCCC(=O)N1CCN(c2ncc(C(F)(F)F)cn2)CC1)n1ccc2c(=O)[nH]ncc21 (centres unmarked) [Compound 76]
≤ 100 | Cc1nn(C(C)COCCC(=O)N2CCN(c3ncc(C#N)cn3)CC2)c2cn[nH]c(=O)c12 (single isomer, unassigned) [Compound 262]
≤ 100 | N#Cc1ccc(N2CCN(C(=O)c3cccc(Nc4cccc5c(=O)[nH]ncc45)c3)CC2)nc1 [Compound 30]
≤ 100 | O=C(CCOCCn1nc(C(F)(F)F)c2c(=O)[nH]ncc21)N1CCN(c2nnc(C(F)(F)F)[nH]2)CC1 [Compound 391]
≤ 100 | CC(COCCC(=O)N1CCN(c2cnc(C(F)F)cn2)CC1)n1nc(C(F)(F)F)c2c(=O)[nH]ncc21 (single isomer, unassigned) [Compound 323]
≤ 100 | CC(COCCC(=O)N1CCN(c2ncc(C#N)cn2)CC1)n1cc(C(F)(F)F)c2c(=O)[nH]ncc21 (centres unmarked) [Compound 465]
≤ 100 | O=C(CCOCCn1cc(C(F)(F)F)c2c(=O)[nH]ncc21)N1CCN(c2nc(C(F)(F)F)cs2)CC1 [Compound 341]
≤ 100 | CC(COCCC(=O)N1CCN(c2cc(Cl)c(F)cn2)CC1)n1nc(C(F)(F)F)c2c(=O)[nH]ncc21 (single isomer, unassigned) [Compound 444]

SMILES | IC50 [nM]
CC(OCCCC(=O)N1CCN(c2ncc(C(F)(F)F)cn2)CC1)c1cc(Cl)cc2c(=O)[nH]ncc12 (single isomer, unassigned) [Compound 174, 7-chloro-5-(1-(4-oxo-4-(4-(5-(trifluoromethyl)pyrimidin-2-yl)piperazin-1-yl)butoxy)ethyl)phthalazin-1(2H)-one] | ≤ 100
